Reference: US11414438B2, “Silylethynyl hetaryl compounds as nitrification inhibitors” (BASF SE, priority 2018, dated 2022)

Legend:
nitrification = assay: inhibition of nitrification in soil incubation (ammonium and nitrate content after 14 days); details: 20° C., 10 mg ammoniumsulfate-N; for NI @ 0.3%: compound at 0.3% of nitrogen N; for NI @ 1%: compound at 1% of nitrogen N; for NI @ 0.1%: compound at 0.1% of nitrogen N; for NI @ 3%: compound at 3% of nitrogen N
Protocol: The compounds of the invention have been tested as follows in terms of the inhibition of nitrification:
100 g soil is filled into 500 ml plastic bottles (e.g. soil sampled from the field) and is moistened to 50% water holding capacity. The soil is incubated at 20° C. for two weeks to activate the microbial biomass. 1 ml test solution, containing the compound in the appropriate concentration (usually 0.3 or 1% of nitrogen N), or DMSO and 10 mg nitrogen in the form of ammoniumsulfate-N is added to the soil and everything mixed well. Bottles are capped but loosely to allow air exchange. The bottles are then incubated at 20° C. for 0 and 14 days.
For analysis 300 ml of a 1% K2SO4-solution is added to the bottle containing the soil and shaken for 2 hours in a horizontal shaker at 150 rpm. Then the whole solution is filtered through a filter (Macherey-Nagel Filter MN 807¼). Ammonium and nitrate content is then analyzed in the filtrate in an autoanalyzer at 550 nm (Merck, AA11).
The inhibition (NI @ a specified concentration) is calculated as follows: […]

[1] = volatility: weight loss from open vials in the hood; format: physicochemical; details: 251 mg in 10 ml vials open in the hood
Protocol: The compounds of the invention have been tested in terms of their volatility. 251 mg of the compounds were provided in 10 ml vials open in the hood and tested in comparison to 5-chloro-2-ethynyl pyridine (Ref.-1). The weight loss was determined after 1 week.

Row | Compound | NI @ 0.3% (nitrification) | NI @ 1% (nitrification) | % weight loss after 1 week [1] | NI @ 0.1% (nitrification) | NI @ 3% (nitrification)
1 | Cc1ccc(C#C[Si](C)(C)C)nc1 [No. 11] | 63 | 77 | – | – | –
2 | C[Si](C)(C#Cc1ccccn1)CCl.Cl [No. 3] | 80 | 91 | – | – | –
3 | C#Cc1ccc(Cl)cn1 [Ref.-1, 5-chloro-2-ethynyl pyridine, reference compound] | – | – | 53% | – | –
4 | C[Si](C)(C)C#Cc1ccccn1 [No. 1] | 77 | – | – | 54 | 86
5 | C[Si](C)(C#Cc1ccccn1)C[Si](C)(C)C#Cc1ccccn1 [No. 8] | 16 | 43 | – | – | –
6 | C[Si](C)(C#Cc1ccccn1)O[Si](C)(C)C#Cc1ccccn1 [No. 5] | 78 | 83 | – | – | –
7 | C[Si](C)(C#Cc1ccccn1)c1ccccc1 [No. 9] | 83 | 80 | – | – | –
8 | C[Si](C)(C#Cc1ccccn1)O[Si](C)(C)O[Si](C)(C)C#Cc1ccccn1 [No. 6] | 51 | 75 | – | – | –
9 | C[Si](C)(C)C#Cc1cnccn1 [No. 12] | 98 | – | 24% | 71 | –
10 | CC(C)(C)[Si](C)(C)C#Cc1ccccn1 [No. 4] | 11 | 28 | – | – | –
11 | C[Si](C)(C#Cc1ccccn1)O[Si](C)(C)O[Si](C)(C)O[Si](C)(C)C#Cc1ccccn1 [No. 7] | 31 | 63 | – | – | –
12 | C[Si](C)(C)C#Cc1ccc(Cl)cn1 [No. 10] | 75 | – | 8% | 61 | 85
13 | C[SiH](C)C#Cc1ccccn1 [No. 2] | 82 | 94 | – | – | –
